Source: ChEMBL document CHEMBL5325426, “Structure-based discovery of potent USP28 inhibitors derived from Vismodegib” (Eur J Med Chem, 2023)
Calls of active or inactive are those of the source. The calls are words filed in the database; no cut-off is given here.

Legend:
HCT-116 [1] = experiment: Inhibition of colony formation in human HCT-116 cells at 17.5 uM by crystal violet staining assay; assay type: functional, cell-based
LS174T [2] = experiment: Inhibition of colony formation in human LS174T cells at 15 uM by crystal violet staining assay; assay type: functional, cell-based
HCT-116 [3] = experiment: Antiproliferative activity against human HCT-116 cells assessed as effect on Bcl-2 protein level at 30 to 80 uM incubated for 1 day by western blotting analysis; assay type: functional, cell-based; settings: dose 30-80 µM
LS174T [4] = experiment: Inhibition of colony formation in human LS174T cells at 10 uM by crystal violet staining assay; assay type: functional, cell-based
LS174T [5] = experiment: Inhibition of colony formation in human LS174T cells at 12.5 uM by crystal violet staining assay; assay type: functional, cell-based
[6] = target: T1, Ubiquitin carboxyl-terminal hydrolase 25 (Homo sapiens) (UniProt Q9UHP3); experiment: Inhibition of USP25 in human LS174T cells assessed as downregulation of Tankyrase 1/2 protein level; assay type: cell-based
T1 sequence (whole entry): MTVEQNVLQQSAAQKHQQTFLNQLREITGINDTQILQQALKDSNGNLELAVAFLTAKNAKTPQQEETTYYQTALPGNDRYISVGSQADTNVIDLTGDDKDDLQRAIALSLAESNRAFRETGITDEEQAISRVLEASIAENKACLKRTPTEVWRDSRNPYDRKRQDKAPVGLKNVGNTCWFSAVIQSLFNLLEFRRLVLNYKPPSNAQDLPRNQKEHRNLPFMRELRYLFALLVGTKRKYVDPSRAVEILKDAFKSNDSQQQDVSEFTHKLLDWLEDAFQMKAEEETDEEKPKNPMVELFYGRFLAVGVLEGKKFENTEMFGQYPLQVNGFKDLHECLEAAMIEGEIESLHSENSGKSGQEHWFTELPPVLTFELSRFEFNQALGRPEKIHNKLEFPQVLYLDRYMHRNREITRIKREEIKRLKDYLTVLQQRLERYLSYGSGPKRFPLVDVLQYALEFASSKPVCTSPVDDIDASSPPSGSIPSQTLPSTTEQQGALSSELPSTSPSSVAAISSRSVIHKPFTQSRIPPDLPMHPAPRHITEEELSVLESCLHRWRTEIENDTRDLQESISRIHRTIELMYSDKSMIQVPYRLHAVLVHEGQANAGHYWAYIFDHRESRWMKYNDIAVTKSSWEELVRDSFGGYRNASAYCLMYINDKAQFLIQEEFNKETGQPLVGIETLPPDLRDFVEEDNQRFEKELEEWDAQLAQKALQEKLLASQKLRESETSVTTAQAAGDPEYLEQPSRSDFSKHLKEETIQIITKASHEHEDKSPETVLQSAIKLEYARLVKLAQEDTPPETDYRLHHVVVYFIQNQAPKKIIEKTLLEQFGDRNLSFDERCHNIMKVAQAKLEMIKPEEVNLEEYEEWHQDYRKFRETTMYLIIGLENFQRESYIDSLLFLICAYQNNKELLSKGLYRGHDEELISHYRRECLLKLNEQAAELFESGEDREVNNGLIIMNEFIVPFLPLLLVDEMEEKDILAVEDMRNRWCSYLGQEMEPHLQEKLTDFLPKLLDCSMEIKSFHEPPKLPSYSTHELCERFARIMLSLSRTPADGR

With `CS(=O)(=O)c1ccc(C(=O)Nc2ccc(Cl)c(-c3ccc(C4(N)CC4)cc3)c2)c(Cl)c1` the inhibition (HCT-116 [1]) was “Active”, the inhibition (LS174T [2]) was “Active” and the Activity (HCT-116 [3]) was “inactive”.
`CS(=O)(=O)c1ccc(C(=O)Nc2ccc(Cl)c(-c3ccc4c(c3)CCNC4)c2)c(Cl)c1` was tested, and the inhibition (LS174T [4]) was “Active”.
In the case of `CS(=O)(=O)c1ccc(C(=O)Nc2ccc(Cl)c(-c3ccc4c(c3)CNC4)c2)c(Cl)c1`, the inhibition (LS174T [5]) is reported as “Active” and the inhibition [6] is reported as “Active”.
